Among the data in US20240207427A1, “SELECTIVE DRUG RELEASE FROM INTERNALIZED CONJUGATES OF BIOLOGICALLY ACTIVE COMPOUNDS” (priority 2021, published 2024) are IC50 values, retold here.

pIC50: −log10 of the molar value. Where two headings read alike, the source gives them in different places.

Type in all cases: cell-based
Test [1] relates to renal carcinoma cells (786-O). Nature of the test: In vitro potency (CellTiter-Glo, 96 h), 786-O. The note with it: Homo sapiens, 786-0, 96 h. The essentials: (§1)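 Four-day continuous exposure at 37 °C to serially diluted ADC or free camptothecin payload, in RPMI 1640 with 20% FBS after 24 h pre-plating. Luminescent signal gave IC50 (ng/mL; nmol/L).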
For test [2], the system named is melanoma cells (A2058). Nature of the test: In vitro potency (CellTiter-Glo, 96 h), A2058. The note with it: Homo sapiens, A2058, 96 h. The protocol:
(§2) In vitro potency was assessed on multiple cancer cell lines. All cell lines were authenticated by STR profiling at IDEXX Bioresearch and cultured for no more than 2 months after resuscitation. Cells cultured in log-phase growth were seeded for 24 hours in 96-well plates containing […] RPMI 1640 supplemented with 20% FBS. Serial dilutions of antibody-drug conjugates in cell culture media were prepared at 4× working concentrations, and 50 μL of each dilution was added to the 96-well plates. Following addition of test articles, cells were incubated with test articles for 4 days at 37 0° C. After 96 hours, growth inhibition was assessed by CellTiterGlo® (Promega, Madison, WI) and luminescence was measured on a plate reader.
(§3) In Table 7, IC50 values for ADCs are given in ng/mL. Cell viability was determined by CellTiter-Glo staining after 96 h exposure to ADC. ND=Not Determined. Ag2 is an antibody targeting a ubiquitous and readily internalizable antigen. The cancer cell lines tested are renal carcinoma cells (786-0), melanoma cells (A2058), pancreatic cancer cells (BxPC3), non-small-cell lung cancer cells (Calu1), anaplastic large cell lymphoma cells (DEL, DELBVR, Karpas299), Hodgkin's lymphoma cells (L540cy), (Ls174T), breast cancer cells (MDA-MB-231), acute myeloid leukemia cells (MOLM-13), and B-lymphocyte cancer cells (SU-DHL4).
(§4) In vitro potency was assessed on multiple cancer cell lines. All cell lines were authenticated by STR profiling at IDEXX Bioresearch and cultured for no more than 2 months after resuscitation. Cells cultured in log-phase growth were seeded for 24 hours in 96-well plates containing […] RPMI 1640 supplemented with 20% FBS. Following addition of test articles, cells were incubated with test articles for 4 days at 37 0° C. After 96 hours, growth inhibition was assessed by CellTiterGlo® (Promega, Madison, WI) and luminescence was measured on a plate reader.
(§5) Cell viability was determined by CellTiter-Glo staining after 96 h exposure to the compound. ND=Not Determined. The cancer cell lines tested are renal carcinoma cells (786-0), melanoma cells (A2058), pancreatic cancer cells (BxPC3), non-small-cell lung cancer cells (Calu1), anaplastic large cell lymphoma cells (DEL, DELBVR, Karpas299), Hodgkin's lymphoma cells (L540cy), (Ls 174T), breast cancer cells (MDA-MB-231), acute myeloid leukemia cells (MOLM-13), B-lymphocyte cancer cells (SU-DHL4), multiple myeloma cells (MM.1R), (U266), and melanoma cells (SK-MEL-5).
as §2, with “37°” for “37 0°”
(§6) In the following Tables IC50 values for ADCs and CPT free drugs are given in ng/mL and nmol/L concentrations. Cell viability was determined by CellTiter-Glo staining after 96 h exposure to ADC or CPT free drug.
(§7) Cell viability was determined by CellTiter-Glo staining after 96 h exposure to ADC. ND=Not Determined.

In test [3] the test system is pancreatic cancer cells (BxPC3). Put plainly: In vitro potency (CellTiter-Glo, 96 h), BxPC3. The note with it: Homo sapiens, BXPC-3, 96 h. The method, boiled down: (§8)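 Seed log-phase cells 24 h (RPMI 1640, 20% FBS); add ADC serial dilutions; incubate 96 h, 37 °C; read luminescence; IC50 in ng/mL.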
Test [4] concerns non-small-cell lung cancer cells (Calu1). Nature of the test: In vitro potency (CellTiter-Glo, 96 h), Calu1. The note with it: Homo sapiens, Calu-1, 96 h. The protocol:
as §2, §3, §4, §5
as §2, with “37°” for “37 0°”
as §6, §7

Test [5] concerns anaplastic large cell lymphoma cells (DEL). Nature of the test: In vitro potency (CellTiter-Glo, 96 h), DEL. The method, boiled down: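 Growth inhibition after 96 h at 37 °C with test article, measured by luminescence; cells in RPMI 1640, 20% FBS.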
Test [6] concerns anaplastic large cell lymphoma cells (DELBVR). Nature of the test: In vitro potency (CellTiter-Glo, 96 h), DELBVR. The method, boiled down:
as §1

Test [7] concerns anaplastic large cell lymphoma cells (Karpas299). Nature of the test: In vitro potency (CellTiter-Glo, 96 h), Karpas299. The note with it: Homo sapiens, KARPAS-299, 96 h. The essentials:
as §1

For test [8], the system named is Hodgkin's lymphoma cells (L540cy). Nature of the test: In vitro potency (CellTiter-Glo, 96 h), L540cy. The essentials:
as §1

Test [9] concerns Ls174T cells. Nature of the test: In vitro potency (CellTiter-Glo, 96 h), Ls174T. The note with it: Homo sapiens, LS174T. The essentials: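 Cells in log-phase growth are plated in RPMI 1640/20% FBS for 24 h. Serially diluted conjugates are then added, and plates are kept at 37 °C for 4 days before ATP-based luminescence gives growth inhibition.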
Test [10] deals with breast cancer cells (MDA-MB-231). Put plainly: In vitro potency (CellTiter-Glo, 96 h), MDA-MB-231. The note with it: Homo sapiens, MDA-MB-231, 96 h. The essentials:
as §1

Test [11] relates to acute myeloid leukemia cells (MOLM-13). Nature of the test: In vitro potency (CellTiter-Glo, 96 h), MOLM-13. The note with it: Homo sapiens, MOLM-13, 96 h. The essentials: as §8
Test [12] has as its system B-lymphocyte cancer cells (SU-DHL4). Nature of the test: In vitro potency (CellTiter-Glo, 96 h), SU-DHL-4. The note with it: Homo sapiens, SU-DHL-4, 96 h. The essentials:
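RPMI 1640/20% FBS cultures, log phase, plated 24 h → ADC titration → 4 d, 37 °C → luminescence → IC50, ng/mL.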

Setting [13] is: CPT free drugs, Table 24, CellTiter-Glo after 96 h exposure, read-out: IC50 (nmol/L) 786-O.
[14] abbreviates: CPT free drugs, Table 24, CellTiter-Glo after 96 h exposure, read-out: IC50 (nmol/L) A2058.
Where [15] appears, read: CPT free drugs, Table 24, CellTiter-Glo after 96 h exposure, read-out: IC50 (nmol/L) BxPC3.
Setting [16] is: CPT free drugs, Table 24, CellTiter-Glo after 96 h exposure, read-out: IC50 (nmol/L) Calu1.
[17] abbreviates: CPT free drugs, Table 24, CellTiter-Glo after 96 h exposure, read-out: IC50 (nmol/L) DEL.
The mark [18] stands for this setting: CPT free drugs, Table 24, CellTiter-Glo after 96 h exposure, read-out: IC50 (nmol/L) DELBVR.
The mark [19] stands for this setting: CPT free drugs, Table 24, CellTiter-Glo after 96 h exposure, read-out: IC50 (nmol/L) Karpas299.
Setting [20] is: CPT free drugs, Table 24, CellTiter-Glo after 96 h exposure, read-out: IC50 (nmol/L) Ls174T.
The mark [21] stands for this setting: CPT free drugs, Table 24, CellTiter-Glo after 96 h exposure, read-out: IC50 (nmol/L) MDAMB231.
Where [22] appears, read: CPT free drugs, Table 24, CellTiter-Glo after 96 h exposure, read-out: IC50 (nmol/L) MOLM-13.
Setting [23] is: CPT free drugs, Table 24, CellTiter-Glo after 96 h exposure, read-out: IC50 (nmol/L) SU-DHL-4.
[24] abbreviates: read-out: IC50 (nmol/L) 786-O, CPT free drugs, Table 24, CellTiter-Glo after 96 h exposure.
[25] abbreviates: read-out: IC50 (nmol/L) BxPC3, CPT free drugs, Table 24, CellTiter-Glo after 96 h exposure.
Setting [26] is: read-out: IC50 (nmol/L) DEL, CPT free drugs, Table 24, CellTiter-Glo after 96 h exposure.
Where [27] appears, read: read-out: IC50 (nmol/L) DELBVR, CPT free drugs, Table 24, CellTiter-Glo after 96 h exposure.
[28] abbreviates: read-out: IC50 (nmol/L) Karpas299, CPT free drugs, Table 24, CellTiter-Glo after 96 h exposure.
Setting [29] is: read-out: IC50 (nmol/L) L540cy, CPT free drugs, Table 24, CellTiter-Glo after 96 h exposure.
Where [30] appears, read: read-out: IC50 (nmol/L) MDAMB231, CPT free drugs, Table 24, CellTiter-Glo after 96 h exposure.
Setting [31] is: read-out: IC50 (nmol/L) MOLM-13, CPT free drugs, Table 24, CellTiter-Glo after 96 h exposure.
[32] abbreviates: read-out: IC50 (nmol/L) SU-DHL-4, CPT free drugs, Table 24, CellTiter-Glo after 96 h exposure.

`CC[C@@]1(O)C(=O)OCc2c1cc1n(c2=O)Cc2c-1nc1cc(F)cc(F)c1c2CN` [Compound 2ac]: the pIC50 in [1] (setting [13]) was 8.05; in [2] (setting [14]) it was 8.52; in test [3] (setting [15]), 7.80; in [4] (setting [16]), 7.17; in test [5] (setting [17]), 8.70; in test [6] (setting [18]), 8.52. Moreover, the pIC50 in [7] (setting [19]) is 8.10; in test [8] (CPT free drugs, Table 24, CellTiter-Glo after 96 h exposure, read-out: IC50 (nmol/L) L540cy) it was 8.40; in test [9] (setting [20]) it was 8.15; in [10] (setting [21]), 7.29; in [11] (setting [22]) it was 7.77; in [12] (setting [23]), 8.40.

For the compound `CC[C@@]1(O)C(=O)OCc2c1cc1n(c2=O)Cc2c-1nc1cc(F)c(C)c(Br)c1c2CN` [Compound 2q, (S)-11-(aminomethyl)-10-bromo-4-ethyl-8-fluoro-4-hydroxy-9-methyl-1,12-dihydro-14H-pyrano[3′,4′:6,7]indolizino[1,2-b]quinoline-3,14(4H)-dione], the pIC50 is 8.40 in test [1] (setting [24]); 8.32 in test [2] (read-out: IC50 (nmol/L) A2058); 7.29 in [3] (setting [25]); 7.11 in test [4] (read-out: IC50 (nmol/L) Calu1); 9.00 in [5] (setting [26]); 9.00 in test [6] (setting [27]). Moreover, the pIC50 in [7] (setting [28]) is 8.59; in test [8] (setting [29]), 8.40; in test [9] (96 h, read-out: IC50 (nmol/L) Ls174T, CPT free drugs, Table 24, CellTiter-Glo after 96 h exposure), 8.30; in test [10] (setting [30]), 8.27; in [11] (setting [31]), 7.76; in test [12] (setting [32]), 8.82.

For `CC[C@@]1(O)C(=O)OCc2c1cc1n(c2=O)Cc2c-1nc1cc3c(c(Br)c1c2CN)OCO3` [Compound 5c], the pIC50 in test [1] (read-out: 786-O IC50, Table 28, CPT free drugs, renal carcinoma cells 786-O, 96 h, CellTiter-Glo) was 9.00; in [2] (read-out: A2058 IC50), 8.30; in test [3] (read-out: BxPC3 IC50, Table 28, CPT free drugs, pancreatic cancer cells BxPC3, 96 h, CellTiter-Glo) it was 8.10; in test [4] (read-out: Calu1 IC50) it was 8.40; in test [5] (read-out: DEL IC50, Table 28, CPT free drugs, anaplastic large cell lymphoma cells DEL, CellTiter-Glo), 9.52; in [7] (read-out: Karpas299 IC50, Table 28, CPT free drugs, anaplastic large cell lymphoma cells Karpas299, 96 h, CellTiter-Glo) it was 9.00. In addition, the pIC50 in [8] (read-out: L540cy IC50, Table 28, CPT free drugs, Hodgkin's lymphoma cells L540cy, CellTiter-Glo) is 9.10; in test [9] (96 h, read-out: Ls174T IC50, Table 28, CPT free drugs, Ls174T cells, 96 h, CellTiter-Glo) it was 8.22; in [10] (read-out: MDAMB231 IC50, Table 28, CPT free drugs, breast cancer cells MDA-MB-231, 96 h, CellTiter-Glo), 8.70; in test [11] (read-out: MOLM-13 IC50, Table 28, CPT free drugs, acute myeloid leukemia cells MOLM-13, 96 h, CellTiter-Glo) it was 8.70; in test [12] (read-out: SU-DHL-4 IC50, Table 28, CPT free drugs, B-lymphocyte cancer cells SU-DHL4, 96 h, CellTiter-Glo), 9.30.

Regarding `CC[C@@]1(O)C(=O)OCc2c1cc1n(c2=O)Cc2c-1nc1cc3c(cc1c2CN)OCCO3` [Compound 2af], the pIC50 in test [1] (setting [24]) was 8.15; in test [2] (read-out: IC50 (nmol/L) A2058) it was 8.70; in [3] (setting [25]) it was 8.15; in test [4] (read-out: IC50 (nmol/L) Calu1), 7.24; in test [5] (setting [26]) it was 9.00; in [6] (setting [27]), 9.00. Moreover, the pIC50 in test [7] (setting [28]) is 8.22; in test [8] (setting [29]), 8.52; in [10] (setting [30]), 7.41; in test [11] (setting [31]), 7.49; in [12] (setting [32]) it was 8.70.

On to `[2H]C1([2H])Oc2cc3nc4c(c(CN)c3cc2O1)Cn1c-4cc2c(c1=O)COC(=O)[C@]2(O)CC` [Compound 2an], for which the pIC50 in test [1] (setting [13]) was 9.00; in test [2] (setting [14]) it was 9.30; in [3] (setting [15]) it was 9.00; in [4] (setting [16]), 9.00; in test [5] (setting [17]) it was 9.70; in test [6] (setting [18]), 9.70. Further, the pIC50 in [7] (setting [19]) was 9.00; in test [9] (setting [20]), 8.22; in test [10] (setting [21]), 9.00; in test [11] (setting [22]), 8.40; in [12] (setting [23]), 9.00.
